Assay results as given in patent EP0908457B1, “3-(1,2-benzisothiazol- and isoxazol-5-Y1)-2,4(1H,3H)-pyrimidinedione or thione and 3-(1,2-benzisothiazol- and isoxazol-5-y1)-4(3H)-pyrimidinone or thione herbicidal agents” (BASF AKTIENGESELLSCHAFT, priority 1997, dated 1999).

What was measured:
Format in all cases: in vivo
[1] = test system: Monochoria vaginalis, Presl.; experiment: Preemergence weed control under flooded paddy conditions, MOOVA (Monochoria); conditions: flooded paddy; for MOOVA herbicidal rating / herbicidal effect rating, MOOVA: preemergence; for MOOVA: preemergence weeds, herbicidal effect rating 0-9, three to four weeks after treatment
[2] = test system: Cyperus serotinus, Rottb.; experiment: Preemergence weed control under flooded paddy conditions, CYPSE (Flatsedge); conditions: for CYPSE herbicidal rating / herbicidal effect rating, CYPSE: preemergence; for CYPSE: preemergence weeds, herbicidal effect rating 0-9, three to four weeks after treatment
Cyperus iria = experiment: Preemergence weed control under flooded paddy conditions, CYPIR (Rice Flatsedge); conditions: flooded paddy; for CYPIR herbicidal rating / herbicidal effect rating, CYPIR: preemergence; for CYPIR: preemergence weeds, herbicidal effect rating 0-9, three to four weeks after treatment
Sagittaria pygmaea, L. = experiment: Preemergence weed control under flooded paddy conditions, SAGPY (Arrowhead (Pygmaea)); conditions: flooded paddy; for SAGPY herbicidal rating / herbicidal effect rating, SAGPY: preemergence; for SAGPY: preemergence weeds, herbicidal effect rating 0-9, three to four weeks after treatment
[3] = test system: Echinochloa oryzoides (Ard.) Fritsch.; experiment: Preemergence weed control under flooded paddy conditions, ECHORC (Watergrass (Calif.)); conditions: flooded paddy; for ECHORC herbicidal rating / herbicidal effect rating, ECHORC: preemergence; for ECHORC: preemergence weeds, herbicidal effect rating 0-9, three to four weeks after treatment
[4] = 0.0320 kg/ha, rated three to four weeks after treatment
[5] = 0.0620 kg/ha, rated three to four weeks after treatment
[6] = 0.1250 kg/ha, rated three to four weeks after treatment
[7] = 0.2500 kg/ha, rated three to four weeks after treatment
[8] = Rate 0.0320 kg/ha, rated three to four weeks after treatment
[9] = Rate 0.0620 kg/ha, rated three to four weeks after treatment
[10] = Rate 0.1250 kg/ha, rated three to four weeks after treatment
[11] = Rate 0.2500 kg/ha, rated three to four weeks after treatment
[12] = Rate 0.0320 kg/ha, rated 3-4 weeks after treatment
[13] = Rate 0.0620 kg/ha, rated 3-4 weeks after treatment
[14] = Rate 0.1250 kg/ha, rated 3-4 weeks after treatment
[15] = Rate 0.2500 kg/ha, rated 3-4 weeks after treatment

Compound: Cn1c(C(F)(F)F)cc(=O)n(-c2ccc3snc(COC(=O)C(C)(C)C)c3c2)c1=O [Example 498, 2,4(1H,3H)-Pyrimidinedione, 3-[3-(hydroxymethyl)-1,2-benzisothiazol-5-yl]-1-methyl-6-(trifluoromethyl)-, pivalate (ester)]
- MOOVA herbicidal rating [1, 4]: 4.0
- MOOVA herbicidal rating [1, 5]: 5.0
- MOOVA herbicidal rating [1, 6]: 7.0
- MOOVA herbicidal rating [1, 7]: 8.0
- CYPSE herbicidal rating [2, 6]: 0.0
- CYPIR herbicidal rating (Cyperus iria; [4]): 2.0
- CYPIR herbicidal rating (Cyperus iria; [5]): 5.0
- CYPIR herbicidal rating (Cyperus iria; [6]): 9.0
- CYPIR herbicidal rating (Cyperus iria; [7]): 9.0
- SAGPY herbicidal rating (Sagittaria pygmaea, L.; [4]): 0.0
- SAGPY herbicidal rating (Sagittaria pygmaea, L.; [5]): 0.0
- SAGPY herbicidal rating (Sagittaria pygmaea, L.; [6]): 3.0
- SAGPY herbicidal rating (Sagittaria pygmaea, L.; [7]): 6.0
- ECHORC herbicidal rating [3, 4]: 0.0
- ECHORC herbicidal rating [3, 5]: 3.0
- ECHORC herbicidal rating [3, 6]: 5.0
- ECHORC herbicidal rating [3, 7]: 6.0

Compound: Cn1c(C(F)(F)F)cc(=O)n(-c2ccc3snc(CSc4ccccc4)c3c2)c1=O [Example 392, 2,4(1H,3H)-Pyrimidinedione, 1-methyl-3-{3-[(phenylthio)methyl]-1,2-benzisothiazol-5-yl}-6-(trifluoromethyl)-]
- herbicidal effect rating, MOOVA [1, 8]: 6.0
- herbicidal effect rating, MOOVA [1, 9]: 7.0
- herbicidal effect rating, MOOVA [1, 10]: 7.0
- herbicidal effect rating, MOOVA [1, 11]: 9.0
- herbicidal effect rating, CYPSE [2, 8]: 0.0
- herbicidal effect rating, CYPSE [2, 9]: 0.0
- herbicidal effect rating, CYPSE [2, 10]: 0.0
- herbicidal effect rating, CYPSE [2, 11]: 0.0
- herbicidal effect rating, CYPIR (Cyperus iria; [8]): 0.0
- herbicidal effect rating, CYPIR (Cyperus iria; [9]): 0.0
- herbicidal effect rating, CYPIR (Cyperus iria; [10]): 3.0
- herbicidal effect rating, CYPIR (Cyperus iria; [11]): 7.0
- herbicidal effect rating, SAGPY (Sagittaria pygmaea, L.; [8]): 0.0
- herbicidal effect rating, SAGPY (Sagittaria pygmaea, L.; [9]): 0.0
- herbicidal effect rating, SAGPY (Sagittaria pygmaea, L.; [10]): 0.0
- herbicidal effect rating, SAGPY (Sagittaria pygmaea, L.; [11]): 0.0
- herbicidal effect rating, ECHORC [3, 8]: 5.0
- herbicidal effect rating, ECHORC [3, 9]: 7.0
- herbicidal effect rating, ECHORC [3, 10]: 9.0
- herbicidal effect rating, ECHORC [3, 11]: 9.0

Compound: Cn1c(C(F)(F)F)cc(=O)n(-c2ccc3snc(COC(=O)c4ccc([N+](=O)[O-])o4)c3c2)c1=O [Example 476, 2,4(1H,3H)-Pyrimidinedione, 3-[3-(hydroxymethyl)-1,2-benzisothiazol-5-yl]-1-methyl-6-(trifluoromethyl)-, 5-nitro-2-furoate (ester)]
- MOOVA herbicidal rating [1, 4]: 5.0
- MOOVA herbicidal rating [1, 5]: 6.0
- MOOVA herbicidal rating [1, 6]: 6.0
- MOOVA herbicidal rating [1, 7]: 9.0
- CYPSE herbicidal rating [2, 4]: 0.0
- CYPSE herbicidal rating [2, 6]: 3.0
- CYPSE herbicidal rating [2, 7]: 6.0
- CYPIR herbicidal rating (Cyperus iria; [4]): 4.0
- CYPIR herbicidal rating (Cyperus iria; [5]): 4.0
- CYPIR herbicidal rating (Cyperus iria; [6]): 9.0
- CYPIR herbicidal rating (Cyperus iria; [7]): 9.0
- SAGPY herbicidal rating (Sagittaria pygmaea, L.; [4]): 0.0
- SAGPY herbicidal rating (Sagittaria pygmaea, L.; [5]): 2.0
- SAGPY herbicidal rating (Sagittaria pygmaea, L.; [6]): 4.0
- SAGPY herbicidal rating (Sagittaria pygmaea, L.; [7]): 5.0
- ECHORC herbicidal rating [3, 4]: 0.0
- ECHORC herbicidal rating [3, 5]: 2.0
- ECHORC herbicidal rating [3, 6]: 2.0
- ECHORC herbicidal rating [3, 7]: 3.0

Compound: Cn1c(C(F)(F)F)cc(=O)n(-c2ccc3snc(COC(=O)c4ccncc4)c3c2)c1=O [Example 463, 2,4(1H,3H)-Pyrimidinedione, 3-[3-(hydroxymethyl)-1,2-benzisothiazol-5-yl]-1-methyl-6-(trifluoromethyl)-, isonicotinate (ester)]
- MOOVA herbicidal rating [1, 4]: 7.0
- MOOVA herbicidal rating [1, 5]: 9.0
- MOOVA herbicidal rating [1, 6]: 9.0
- MOOVA herbicidal rating [1, 7]: 9.0
- CYPSE herbicidal rating [2, 4]: 2.0
- CYPSE herbicidal rating [2, 6]: 6.0
- CYPSE herbicidal rating [2, 7]: 7.0
- CYPIR herbicidal rating (Cyperus iria; [4]): 5.0
- CYPIR herbicidal rating (Cyperus iria; [5]): 6.0
- CYPIR herbicidal rating (Cyperus iria; [6]): 9.0
- CYPIR herbicidal rating (Cyperus iria; [7]): 9.0
- SAGPY herbicidal rating (Sagittaria pygmaea, L.; [4]): 0.0
- SAGPY herbicidal rating (Sagittaria pygmaea, L.; [5]): 3.0
- SAGPY herbicidal rating (Sagittaria pygmaea, L.; [6]): 5.0
- SAGPY herbicidal rating (Sagittaria pygmaea, L.; [7]): 7.0
- ECHORC herbicidal rating [3, 4]: 2.0
- ECHORC herbicidal rating [3, 5]: 6.0
- ECHORC herbicidal rating [3, 6]: 9.0
- ECHORC herbicidal rating [3, 7]: 9.0

Compound: Cn1c(C(F)(F)F)cc(=O)n(-c2ccc3snc(COC(=O)c4cccnc4Cl)c3c2)c1=O [Example 480, 2,4(1H,3H)-Pyrimidinedione, 3-[3-(hydroxymethyl)-1,2-benzisothiazol-5-yl]-1-methyl-6-(trifluoromethyl)-, 2-chloronicotinate (ester)]
- MOOVA herbicidal rating [1, 4]: 7.0
- MOOVA herbicidal rating [1, 5]: 9.0
- MOOVA herbicidal rating [1, 6]: 9.0
- MOOVA herbicidal rating [1, 7]: 9.0
- CYPSE herbicidal rating [2, 4]: 3.0
- CYPSE herbicidal rating [2, 6]: 3.0
- CYPIR herbicidal rating (Cyperus iria; [4]): 6.0
- CYPIR herbicidal rating (Cyperus iria; [5]): 9.0
- CYPIR herbicidal rating (Cyperus iria; [6]): 9.0
- CYPIR herbicidal rating (Cyperus iria; [7]): 9.0
- SAGPY herbicidal rating (Sagittaria pygmaea, L.; [4]): 0.0
- SAGPY herbicidal rating (Sagittaria pygmaea, L.; [5]): 3.0
- SAGPY herbicidal rating (Sagittaria pygmaea, L.; [6]): 5.0
- SAGPY herbicidal rating (Sagittaria pygmaea, L.; [7]): 6.0
- ECHORC herbicidal rating [3, 4]: 0.0
- ECHORC herbicidal rating [3, 5]: 2.0
- ECHORC herbicidal rating [3, 6]: 5.0
- ECHORC herbicidal rating [3, 7]: 6.0

Compound: CCOC(=O)C1CCC(OC(=O)COc2ccc(C)cc2-c2nsc3ccc(-n4c(=O)cc(C(F)(F)F)n(C)c4=O)cc23)CC1 (single isomer, unassigned; isomer b) [Example 525, Acetic acid, {{2-{5-[3,6-dihydro-3-methyl-2,6-dioxo-4-(trifluoromethyl)-1(2H)-pyrimidinyl)-1,2-benzisothiazol-3-yl}-p-tolyl}oxy}-, ester with ethyl 4-hydroxycyclohexanecarboxylate, isomer B]
- herbicidal effect rating, MOOVA [1, 12]: 9.0
- herbicidal effect rating, MOOVA [1, 13]: 9.0
- herbicidal effect rating, MOOVA [1, 14]: 9.0
- herbicidal effect rating, MOOVA [1, 15]: 9.0
- herbicidal effect rating, CYPSE [2, 12]: 0.0
- herbicidal effect rating, CYPSE [2, 13]: 0.0
- herbicidal effect rating, CYPSE [2, 14]: 0.0
- herbicidal effect rating, CYPSE [2, 15]: 0.0
- herbicidal effect rating, CYPIR (Cyperus iria; [12]): 0.0
- herbicidal effect rating, CYPIR (Cyperus iria; [13]): 2.0
- herbicidal effect rating, CYPIR (Cyperus iria; [14]): 2.0
- herbicidal effect rating, CYPIR (Cyperus iria; [15]): 4.0
- herbicidal effect rating, SAGPY (Sagittaria pygmaea, L.; [12]): 0.0
- herbicidal effect rating, SAGPY (Sagittaria pygmaea, L.; [13]): 0.0
- herbicidal effect rating, SAGPY (Sagittaria pygmaea, L.; [14]): 0.0
- herbicidal effect rating, SAGPY (Sagittaria pygmaea, L.; [15]): 0.0
- herbicidal effect rating, ECHORC [3, 12]: 6.0
- herbicidal effect rating, ECHORC [3, 13]: 7.0
- herbicidal effect rating, ECHORC [3, 14]: 9.0
- herbicidal effect rating, ECHORC [3, 15]: 9.0

Compound: Cn1c(C(F)(F)F)cc(=O)n(-c2ccc3snc(C(=O)c4ccccc4)c3c2)c1=O [Example 449, 2,4(1,3H)-Pyrimidinedione, 3-(3-benzoyl-1,2-benzisothiazol-5-yl)-1-methyl-6-(trifluoromethyl)-]
- MOOVA ([1]; 0.0320 kg/ha): 7.0
- MOOVA ([1]; 0.0620 kg/ha): 7.0
- MOOVA ([1]; 0.1250 kg/ha): 9.0
- MOOVA ([1]; 0.2500 kg/ha): 9.0
- CYPSE ([2]; 0.0320 kg/ha): 2.0
- CYPSE ([2]; 0.2500 kg/ha): 4.0
- CYPIR (Cyperus iria; 0.0320 kg/ha): 4.0
- CYPIR (Cyperus iria; 0.0620 kg/ha): 5.0
- CYPIR (Cyperus iria; 0.1250 kg/ha): 8.0
- CYPIR (Cyperus iria; 0.2500 kg/ha): 9.0
- SAGPY (Sagittaria pygmaea, L.; 0.0320 kg/ha): 2.0
- SAGPY (Sagittaria pygmaea, L.; 0.0620 kg/ha): 4.0
- SAGPY (Sagittaria pygmaea, L.; 0.1250 kg/ha): 4.0
- SAGPY (Sagittaria pygmaea, L.; 0.2500 kg/ha): 6.0
- ECHORC ([3]; 0.0320 kg/ha): 5.0
- ECHORC ([3]; 0.0620 kg/ha): 7.0
- ECHORC ([3]; 0.1250 kg/ha): 9.0
- ECHORC ([3]; 0.2500 kg/ha): 9.0

Compound: Cn1c(C(F)(F)F)cc(=O)n(-c2ccc3snc(C(SCCCO)SCCCO)c3c2)c1=O [Example 424, 1,2-Benzisothiazole-3-carboxaldehyde, 5-[3,6-dihydro-3-methyl-2,6-dioxo-4-(trifluoromethyl)-1(2H)-pyrimidinyl]-, 3-[bis(3-hydroxypropyl)dithioacetal]]
- MOOVA ([1]; 0.0320 kg/ha): 7.0
- MOOVA ([1]; 0.0620 kg/ha): 9.0
- MOOVA ([1]; 0.1250 kg/ha): 9.0
- MOOVA ([1]; 0.2500 kg/ha): 9.0
- CYPSE ([2]; 0.1250 kg/ha): 3.0
- CYPSE ([2]; 0.2500 kg/ha): 3.0
- CYPIR (Cyperus iria; 0.0320 kg/ha): 4.0
- CYPIR (Cyperus iria; 0.0620 kg/ha): 5.0
- CYPIR (Cyperus iria; 0.1250 kg/ha): 6.0
- CYPIR (Cyperus iria; 0.2500 kg/ha): 7.0
- SAGPY (Sagittaria pygmaea, L.; 0.0320 kg/ha): 0.0
- SAGPY (Sagittaria pygmaea, L.; 0.0620 kg/ha): 0.0
- SAGPY (Sagittaria pygmaea, L.; 0.1250 kg/ha): 0.0
- SAGPY (Sagittaria pygmaea, L.; 0.2500 kg/ha): 0.0
- ECHORC ([3]; 0.0320 kg/ha): 0.0
- ECHORC ([3]; 0.0620 kg/ha): 0.0
- ECHORC ([3]; 0.1250 kg/ha): 3.0
- ECHORC ([3]; 0.2500 kg/ha): 3.0
